Test results published in patent US6583179B2, “Substituted aminoalkylamide derivatives as antagonists of follicle stimulating hormone” (Ortho-McNeil Pharmaceutical, Inc., priority 1999, dated 2003).

Legend:
Rat Granulosa Cell = experiment: Rat granulosa cell FSH-stimulated cAMP production; format: cell-based; conditions: inhibition of cAMP produced by EC70 dose of FSH (1.4 nM), maximum concentration 50 μM
Protocol: Insulin, diethylstilbesterol, androstenedione, forskolin and DMSO were purchased from Sigma (St. Louis, Mo.). Fungizone, penicillin/streptomycin, charcoal-treated heat inactivated fetal bovine serum (CT-HI-FBS) and Dulbecco's Modified Eagle Medium:Hams F12 medium containing 15 mM Hepes and L-glutamine (DMEM:F12), were purchased from GIBCO BRL (Grand Island, N.Y.).
Ovine FSH (NIADDK-oFSH-17; FSH potency=20 NIH-FSH-S1 U/mg; LH contamination=0.04 times NIH-LH-S1) was received from Ogden Bioservices Corporation, Rockville, Md. Human FSH (Fertinex), was purchased from Serono Pharmaceutical (Framingham, Mass.). Human chorionic gonadotropin (hCG) was purchased from Sigma (St Louis, Mo.).
Immature intact female rats (Wistar-derived strain; 21-23 days old) were implanted with a single pellet (Innovative Research of America, Sarasota, Fla.) containing 2.5 mg diethylstilbesterol (DES) for 3 days. On the third day, the animals were sacrificed, the ovaries were removed, and the granulosa cells were isolated essentially as described in Haynes-Johnson et al., Biol. Reprod., 61 (1), 147-153, (1999). Granulosa cells were plated at a density of 300,000 cells per ml with 0.2 ml added to each well of 96 well culture dishes (Corning, N.Y.). Cultures were incubated at 37° C. in a humidified incubator (95% air, 5% CO2) overnight (18 hours).
Androstenedione (100,000X) was prepared by dissolving the steroid in 100% ethanol, and was subsequently diluted to a final concentration of 10^−7M containing 0.1% ethanol in assay media. The assay media was serum-free, DES-free, insulin-free media, prepared by adding 5 mL pen-strep,1.5 mL fungizone and 5 μL androstenedione to 493.5 mL DMEM F-12 media.
(§1) Test compounds were solubilized in 30% dimethyl sulfoxide (DMSO) at a concentration of 10 mM before diluting to appropriate concentrations in assay medium. The final DMSO concentration in the treated cells and in the control cells was 0.75%.
Test plates containing the granulosa cells were preincubated for 18 hours at 37° C. with 95% air, 5% CO2, 100% humidity. The spent media was removed and 50 μl assay media (DMEM:F12) containing 2 mM IBMX (3-isobutyl-1-methyl-xanthine) was added to the cells. Compounds (25 μl) in the appropriate concentration were added followed 5 minutes later by an EC70 dose of FSH (25 μl; 50 ng/ml; 1.4 nM). After 30 minutes @ 22.5° C. (room temperature) the reaction was terminated by addition of 25 μL 0.5 N hydrochloric acid to each well. The amount of cAMP produced was measured by radioimmunoassay in a FlashPlate (DuPont, Boston, Mass.). To each flash plate 60 μL flash plate buffer was added followed by 40 μL acidified cell sample or cAMP standard, followed with the addition of 100 μl ^125l-cAMP trace. The FlashPlates were sealed, incubated overnight @ room temperature, and counted in a Packard TopCount (Packard Instrument Co., Meriden, Conn.). The cAMP radioimmunoassay results were calculated using DPM conversion and log-logit transformation of % binding (Excel program).

human FSH receptor = biological target: T1, human FSH receptor (Homo sapiens, UniProt P23945); experiment: hFSHR CHO cAMP assay (rhFSHR-cLUC cells, FSH-stimulated cAMP, radioimmunoassay); format: cell-based; conditions: inhibition of cAMP produced by EC70 dose of FSH (4.85 nM); maximum concentration 50 μM
T1 construct: expressed in transfected cells; host or cells: Chinese Hamster Ovary cells (K-1; ATCC), line rhFSHR-cLUC
T1 sequence (P23945 18-695): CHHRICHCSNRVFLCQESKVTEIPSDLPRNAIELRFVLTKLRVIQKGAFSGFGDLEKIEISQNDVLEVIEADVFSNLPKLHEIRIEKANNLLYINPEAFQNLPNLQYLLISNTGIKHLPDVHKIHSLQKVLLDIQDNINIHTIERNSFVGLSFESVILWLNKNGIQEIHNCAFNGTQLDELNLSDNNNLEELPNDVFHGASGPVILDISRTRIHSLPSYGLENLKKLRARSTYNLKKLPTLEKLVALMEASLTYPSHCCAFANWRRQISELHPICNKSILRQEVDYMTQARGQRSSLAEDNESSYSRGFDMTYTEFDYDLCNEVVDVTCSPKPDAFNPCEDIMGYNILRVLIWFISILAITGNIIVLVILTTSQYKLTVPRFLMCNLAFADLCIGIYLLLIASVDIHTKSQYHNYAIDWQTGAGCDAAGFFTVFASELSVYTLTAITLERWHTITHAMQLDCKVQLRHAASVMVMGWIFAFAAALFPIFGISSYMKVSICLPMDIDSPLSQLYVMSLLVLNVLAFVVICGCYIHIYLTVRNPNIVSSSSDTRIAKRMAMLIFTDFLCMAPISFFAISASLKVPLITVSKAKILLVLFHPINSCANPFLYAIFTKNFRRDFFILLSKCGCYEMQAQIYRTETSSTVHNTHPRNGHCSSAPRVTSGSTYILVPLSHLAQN
Description: Minimum Essential Medium-Alpha (MEM-alpha), fetal bovine serum (FBS), penicillin, streptomycin, geneticin, trypsin-EDTA, Hanks' Balanced Salt Solution (no Calcium chloride, Magnesium chloride, Magnesium sulfate, or phenol red; Ca-Mg free HBSS) were purchased from Gibco BRL (Gaithersburg, Md.). The cells used for the FSH bioassay (rhFSHR-cLUC) were Chinese Hamster Ovary cells (K-1; ATCC) stably transformed with human FSH receptor (pSVK-FSHr) and a cAMP luciferase reporter gene (responsive CGα-180LUC). Follicle Stimulating Hormone (Metrodin; Fertinex) was purchased from Serono, Ltd. (Norwell, Mass.).
The rhFSHR-cLUC cell cultures were maintained in MEM-Alpha supplemented with 10% heat-inactivated FBS (HIFBS), 100 U/ml penicillin, 100 μg/mL streptomycin, and included 0.1 g/L geneticin for stable cell selection.
Forty-eight hours after the cells were plated in sterile 96-well culture plates (Corning, Corning, N.Y.) the spent media was removed and 50 μl assay media (modified growth media with 2% HIFBS) containing 2 mM IBMX (3-isobutyl-1-methyl-xanthine) was added to the cells. Compounds (25 μl) in the appropriate concentration were added followed 5 minutes later by an EC70 dose of FSH (25 μl; 160 ng/ml; 4.85 nM). After 10 minutes @ 22.5° C. (room temperature) the reaction was terminated by addition of 25 μL 0.5 N hydrochloric acid to each well. The amount of cAMP produced was measured by radioimmunoassay in a FlashPlate (DuPont, Boston, Mass.). To each flash plate 60 μL flash plate buffer was added followed by 40 μL acidified cell sample or cAMP standard, followed with the addition of 100 μl ^125l-cAMP trace. The FlashPlates were sealed, incubated overnight @ room temperature, and counted in a Packard TopCount (Packard Instrument Co., Meriden, Conn.). The cAMP radioimmunoassay results were calculated using DPM conversion and log-logit transformation of % binding (Excel program).
as §1
For individual experiments, a set of samples were tested including a vehicle control (assay buffer), a reference compound (hFSH) at a range of concentrations designed to elicit a minimal to maximal response, and several concentrations of test compounds together with an EC70 concentration of standard (hFSH challenge). Each compound was performed in duplicates for the primary evaluation and quadruplicates for the dose-ranging experiments. The cAMP radioimmunoassay raw data (pmol) were calculated to provide average pmol cAMP produced/ml and the percent inhibition was calculated as shown below.
% Inh=[1−(Avg.pmoltest compound+standard)/(Avg.pmolstandard)]×100
EC50 values were calculated from an analysis of the concentration-inhibition data using a linear analysis of the data transformed to a log-logit format.

| SMILES | EC50 (Rat Granulosa Cell) | EC50 (human FSH receptor) |
| --- | --- | --- |
| COc1ccccc1CCN(CC(=O)NCc1ccc(CN)cc1)S(=O)(=O)c1ccc(-c2cccc(F)c2)cc1 [Compound 14] | 1560 nM | 740 nM |
| COc1cccc(-c2ccc(S(=O)(=O)N(CCc3ccccc3OC)CC(=O)NCc3ccc(CN)cc3)cc2)c1 [Compound 16] | 510 nM | 1130 nM |
| COc1cccc(CN(CC(=O)NCC2CCC(CN)CC2)S(=O)(=O)c2ccc(-c3cccc(OC)c3)cc2)c1 (stereo not shown) [Compound 24] | 1070 nM | 2330 nM |
| COc1ccccc1CCN(CC(=O)NCC1CCC(CN)CC1)S(=O)(=O)c1ccc(-c2cccc(C(F)(F)F)c2)cc1 (stereo not shown) [Compound 29] | 2060 nM | 3090 nM |
| COc1ccccc1CCN(CC(=O)NCC1CCC(CN)CC1)S(=O)(=O)c1ccc(-c2ccccc2Cl)cc1 (stereo not shown) [Compound 31] | 1970 nM | 910 nM |
| COc1ccccc1CCN(CC(=O)NCC1CCC(CN)CC1)S(=O)(=O)c1ccc(-c2ccccc2C)cc1 (stereo not shown) [Compound 32] | 160 nM | 310 nM |
| COc1ccccc1CCN(CC(=O)NCC1CCC(CN)CC1)S(=O)(=O)c1ccc(-c2ccccc2OC)cc1 (stereo not shown) [Compound 33] | 180 nM | 420 nM |
| COc1ccccc1CN(CC(=O)NCC1CCC(CN)CC1)S(=O)(=O)c1ccc(-c2cnc(SC)nc2)s1 (stereo not shown) [Compound 73] | 1450 nM | 4950 nM |
| COc1ccccc1CCN(CC(=O)NC1CCC(N)CC1)S(=O)(=O)c1ccc(-c2ccccc2C)cc1 (stereo not shown) [Compound 94] | 8910 nM | 34500 nM |
| COc1ccccc1CCN(CC(=O)NCc1ccc(CN)cc1)S(=O)(=O)c1ccc(Cl)s1 [Compound 114] | 8970 nM | 9780 nM |
| C[C@@H](CN(CC(=O)NCc1ccc(CN)cc1)S(=O)(=O)c1ccc(-c2cccc(F)c2)cc1)c1ccccc1 [Compound 203] | 60 nM | 80 nM |
| C[C@H](CN(CC(=O)NCc1ccc(CN)cc1)S(=O)(=O)c1ccc(-c2ccccc2Cl)cc1)c1ccccc1 [Compound 208] | 40 nM | 60 nM |
| COc1ccccc1CCN(CC(=O)NCc1ccc(CN)cc1)S(=O)(=O)c1ccc(-c2ccccc2C)s1 [Compound 272] | 600 nM | 550 nM |
| Cc1ccccc1-c1ccc(S(=O)(=O)N(CC(=O)NCC2CCCC(CN)C2)C[C@H](C)c2ccccc2)cc1 (stereo partly shown) [Compound 384] | 80 nM | 270 nM |
